{
  "source": "patent EP0437367A2",
  "about": "“Compositions and methods for inhibiting osteoclast cellular adhesion to bone” (MERCK & CO. INC., priority 1990, dated 1991)",
  "assay_type_in_all_cases": "cell-based",
  "key": {"chicken osteoclasts [1]": {"system": "chicken osteoclasts", "assay": "resorption by chicken osteoclasts, release of 3H proline from labelled bone particles", "method": "Osteoclasts from the long bones of egg laying hens were isolated by the methods of Zambonin Zallone et al. (1989) and Blair et al., J. Cell Biol. 102: 1164-1172 (1986). Medullary bone was harvested with scalpels from split femora and tibiae of laying hens (Dekalb XL) that were on a Ca deficient diet (5070C- 9, Purina Mills Inc., St. Louis) for 3-6 wks. After washing in PBS 4°C, the suspension was pressed through a 110 um nylon mesh and then osmotically shocked in 0.2% NaCl for 3 min 37°C to lyse red blood cells. The cells were collected at 350xg (5 min, 4°C), and osteoclasts were sedimented through 70% serum for 90 min at 4°C in 50 ml tubes (Fisher). The bottom 5 ml was then layered over a 3 step (1.073, 1.099, 1.143 g/cm³) Nycodenz gradient (Accurate, Ct) and spun at 350xg, 20 min, 4°C. […] Cells excluding trypan blue (Gibco) were immediately counted on a hemocytometer (Fisher) and aliquoted at 1-2x 10⁶ total cells (not counting red blood cells)/ well of 48 well plates (Costar), no. […]\nTherefore, for 1 day resorption experiments, unlabelled bone particles (50 ug, <20 um fraction) were first added to chicken cells at day 3 followed by labelled bone (100 ug, 20- 53 um) plus test compounds (Merck) at day 5. Alternatively, labelled bone (100 ug) plus compounds were added at day 3 and the media counted at day 6 with a LKB liquid scintillation counter. […]"}, "chicken osteoclasts [2]": {"system": "chicken osteoclasts", "assay": "attachment assay of 3H proline labelled bone particles to chicken osteoclasts", "settings": "chicken osteoclasts after 5-6 days culture", "method": "Attachment of ³H proline labelled bone particles (20- 53 um) was followed with time by assaying free and bound pools. Chicken osteoclasts in 48 well plates were given 100 ug of labelled bone particles. Free was defined as particles liberated by 3x swirling of cultures with media. Bound was defined as particles liberated after 6 hr incubation and 2x swirling in 1N NaOH. All cells were completely disrupted by the latter treatment. Samples were then ashed in a Packard 306 oxidizer (Camberra Inst., NJ) and counted (LKB).\nFree end bound particles of bone labelled with [³H] proline were assayed as a function of incubation time with chicken osteoclasts after 5-6 days culture at 37°C. […] At this echistatin concentration, resorption was inhibited by 40% with little effect on osteoclast morphology."}, "rat osteoclasts [3]": {"biological_target": "T1, rat osteoclasts (Rattus norvegicus, UniProt F1LZX9+Q8R2H2)", "T1 sequence (F1LZX9 31-1043)": "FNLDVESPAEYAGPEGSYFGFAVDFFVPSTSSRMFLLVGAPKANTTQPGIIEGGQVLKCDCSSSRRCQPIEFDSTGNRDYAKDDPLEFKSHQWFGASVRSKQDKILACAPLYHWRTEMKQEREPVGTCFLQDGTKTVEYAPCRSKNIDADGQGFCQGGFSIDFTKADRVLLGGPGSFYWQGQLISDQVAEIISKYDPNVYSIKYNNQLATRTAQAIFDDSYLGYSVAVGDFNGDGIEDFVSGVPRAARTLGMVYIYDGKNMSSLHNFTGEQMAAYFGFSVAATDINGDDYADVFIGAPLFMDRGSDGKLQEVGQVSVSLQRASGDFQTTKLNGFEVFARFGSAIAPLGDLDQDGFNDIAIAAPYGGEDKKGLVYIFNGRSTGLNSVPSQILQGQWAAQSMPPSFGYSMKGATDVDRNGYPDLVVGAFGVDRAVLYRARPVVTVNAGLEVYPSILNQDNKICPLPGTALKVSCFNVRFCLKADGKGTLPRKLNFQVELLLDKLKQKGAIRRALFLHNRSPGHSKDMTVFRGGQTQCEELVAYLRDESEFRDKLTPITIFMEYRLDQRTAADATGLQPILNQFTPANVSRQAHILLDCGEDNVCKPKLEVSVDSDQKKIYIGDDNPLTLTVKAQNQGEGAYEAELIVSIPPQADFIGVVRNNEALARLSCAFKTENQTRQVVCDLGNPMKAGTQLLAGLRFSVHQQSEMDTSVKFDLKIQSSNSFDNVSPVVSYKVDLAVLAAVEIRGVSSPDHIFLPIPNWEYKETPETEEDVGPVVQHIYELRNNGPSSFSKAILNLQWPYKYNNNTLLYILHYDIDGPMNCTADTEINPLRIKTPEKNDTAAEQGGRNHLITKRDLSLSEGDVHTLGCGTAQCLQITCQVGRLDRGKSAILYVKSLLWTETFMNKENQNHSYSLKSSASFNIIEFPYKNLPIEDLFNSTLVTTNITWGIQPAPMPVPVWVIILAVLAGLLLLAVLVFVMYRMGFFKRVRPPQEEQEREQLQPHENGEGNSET", "T1 sequence (Q8R2H2 26-787)": "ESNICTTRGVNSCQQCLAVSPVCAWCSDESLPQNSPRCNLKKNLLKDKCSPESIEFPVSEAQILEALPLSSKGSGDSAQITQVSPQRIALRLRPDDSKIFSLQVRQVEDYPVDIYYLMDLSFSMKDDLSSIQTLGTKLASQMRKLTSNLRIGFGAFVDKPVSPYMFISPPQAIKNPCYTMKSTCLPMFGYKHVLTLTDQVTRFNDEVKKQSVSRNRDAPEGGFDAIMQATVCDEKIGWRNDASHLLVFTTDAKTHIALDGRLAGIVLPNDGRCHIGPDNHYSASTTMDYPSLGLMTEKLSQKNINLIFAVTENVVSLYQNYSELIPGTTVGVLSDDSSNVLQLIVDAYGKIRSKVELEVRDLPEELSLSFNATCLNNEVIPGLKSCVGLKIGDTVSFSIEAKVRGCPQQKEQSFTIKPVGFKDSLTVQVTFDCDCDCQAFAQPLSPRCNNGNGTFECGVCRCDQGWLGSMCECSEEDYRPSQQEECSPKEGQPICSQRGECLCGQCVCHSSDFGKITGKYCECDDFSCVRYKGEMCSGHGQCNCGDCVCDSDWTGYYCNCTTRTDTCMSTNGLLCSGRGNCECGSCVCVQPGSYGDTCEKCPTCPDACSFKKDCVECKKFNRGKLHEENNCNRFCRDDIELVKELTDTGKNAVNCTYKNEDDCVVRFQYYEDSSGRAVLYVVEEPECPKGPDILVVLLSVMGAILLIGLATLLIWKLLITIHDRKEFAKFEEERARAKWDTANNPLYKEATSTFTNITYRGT", "assay": "retraction of lamellipodia of rat osteoclasts", "excerpt": "Osteoclasts were isolated from the long bones of 1-3 day old rats as described by Chambers et al., J. Cell Sci. 66: 383-399 (1984). Femora, tibiae and humera were dissected clean of soft tissue, split and scrapped with scalpels into 199 media pH 7-7.2 + 10% heat inactivated fetal calf serum + 100 U/ml antibiotics (penicillin G, steptomycin, amphotericin B, Gibco, New York). After gentle pipetting 60x with a wide bore pipette, the cell suspension was passed through a 110 um nylon mesh (Spectra) and aliquoted onto plastic dishes (Costar, Cambridge, MA), No. 1 coverslips (Corning, New York), glass cuvettes (Herminus) or bone slices (Arnett and Dempster, Endocrinology 120: 602-608 (1987)). All experiments with rat osteoclast cultures were conducted within the first 24 hr after isolation.\nRat or chicken osteoclasts were incubated with different concentrations of RGDS, echistatin and Ala²⁴ echistatin. All of these peptides induced morphological changes but rat osteoclasts 1 day after isolation on glass retracted lamellipodia at 10⁵x lower concentrations of echistatin (4.3 nM) compared to RGDS peptide. […] At these concentrations, extension/retraction and ruffling motility of the lamellipodia increased. […]"}, "rat osteoclasts [4]": {"biological_target": "T1, rat osteoclasts", "assay": "bone slice resorption assay with rat osteoclasts", "settings": "range 1pM- 10 uM, P>0.07, Graph 3a", "method": "Osteoclasts, large multinucleated cells up to 400 microns in diameter and with abundant acidophilic cytoplasm which function in the absorption and removal of osseous tissue, use the integrin receptor to bind bone as part of the mechanism of bone resorption. […] Based on the release of [³H] proline from labelled bone particles, the IC₅₀ of chicken osteoclast resorption was 100 nM. By comparison, the RGDS synthetic tetrapeptide inhibited rat or chicken resorption with an IC₅₀ of 0.1 mM. Attachment experiments with chicken osteoclasts and bone particles labelled with [³H] proline confirmed that the mechanism of action of echistatin is to inhibit osteoclast binding to bone. Echistatin induces the retraction of osteoclast lamellipodia in a manner reminiscent of 1 nM calcitonin or 1 uM prostaglandin E₂.\nOsteoclasts were isolated from the long bones of 1-3 day old rats as described by Chambers et al., J. Cell Sci. 66: 383-399 (1984). […]\nResorption of rat and some chicken osteoclasts was measured by using bone slices (4.4 x 4.4 x 0.2 mm) from the diaphysis of bovine femur (Isomet, Buehler Ltd., Lake Bluff, IL) which were cut with a low speed diamond saw as described by Arnett and Dempster, 1986. […] Resorption pits were quantitated by reflected light microscopy with crossed polarizers and rotatable lambda/4 plate (Sato and Grasser, J. Bone Min. Res. in press)."}},
  "note": "Bridge positions count the residues as written; N and C are the ends.",
  "data": [
    {"molecule": "Ala²⁴ echistatin", "values": [
      {"measurement": "effects on the resorption activity", "setting": "chicken osteoclasts [1]; range 1pM- 10 uM, P>0.07, Graph 3a", "result": "insignificant effects"},
      {"measurement": "kinetics of bone attachment to osteoclasts", "setting": "chicken osteoclasts [2]; 10 nM", "result": "no significant effect"},
      {"measurement": "concentration at which lamellipodia retracted", "setting": "rat osteoclasts [3]; rat osteoclasts 1 day after isolation on glass", "result": 34, "unit": "nM"},
      {"measurement": "concentration at which lamellipodia did not retract", "setting": "rat osteoclasts [3]; rat osteoclasts, followed for up to 2 hr", "result": 3.4, "unit": "nM"},
      {"measurement": "effects on the resorption activity", "setting": "rat osteoclasts [4]", "result": "insignificant effects"}
    ]},
    {"molecule": "CCCCC[C@H](O)/C=C/[C@H]1[C@H](O)CC(=O)[C@@H]1C/C=C\\CCCC(=O)O", "note": "[prostaglandin E₂]", "values": [
      {"measurement": "IC50", "setting": "chicken osteoclasts [1]; Gallus gallus, Osteoclast, 24 h, Graph 2a, 1 day resorption assay, read-out: IC₅₀ of resorption", "result": 1, "unit": "µM"}
    ]},
    {"molecule": "H-ECESGPCCRNCKFLKEGTICKRARGDDMDDYCNGKTCDCPRNPHKGPAT-OH (disulfide 2-11, 7-32, 8-37, 20-39 (inferred)) [Synthetic Echistatin]", "values": [
      {"measurement": "attachment of bone particles to osteoclasts", "setting": "chicken osteoclasts [2]; 100 nM, up to 150 min", "result": "significantly inhibited"}
    ]}
  ]
}
